{
  "source": "patent US20090062721A1",
  "about": "“IONTOPHORESIS DEVICE AND METHOD OF MANUFACTURING THE SAME” (TTI ELLEBEAU INC., priority 2006, published 2009)",
  "test": "pH of aqueous lidocaine hydrochloride solution brought into contact with an activated carbon fiber polarizable electrode",
  "type": "physicochemical",
  "details": "after contact with polarizable electrode composed of activated carbon fibers, within an extremely short time period",
  "note": "Counter-ions that a name gives are not always drawn.",
  "data": [
    {"smiles": "CCN(CC)CC(=O)Nc1c(C)cccc1C", "note": "[lidocaine hydrochloride]", "values": [
      {"measurement": "pH value of aqueous solution", "value": "about 2.5"}
    ]}
  ]
}
